Consider 37 compounds from ChEMBL document CHEMBL5532656, “Novel ligustilide derivatives target quorum sensing system LasR/LasB and relieve inflammatory response against Pseudomonas aeruginosa infection” (Eur J Med Chem, 2024).

The nature of this assay: Inhibition of quorum sensing system in Pseudomonas aeruginosa PAO1-lasB-gfp at 10 uM relative to control.
Consider `CCCCC1(O)C2=C(C=CCC2)C(=O)N1C1CCCCC1` (configuration not stated), for which the inhibition stood at 16.4%.

In the case of `CCCCC1(O)C2=C(C=CCC2)C(=O)N1Cc1ccc(O)cc1` (configuration not stated), the inhibition came out at 40.2%.

In the case of `CCCCC1(O)C2=C(C=CCC2)C(=O)N1Cc1cccc(Cl)c1` (configuration not stated), the inhibition came out at 34.2%.

For `CCCCC1(O)C2=C(C=CCC2)C(=O)N1CCCCc1ccccc1` (configuration not stated), the inhibition came out at 18.1%.

In turn, `CCCCC1(O)C2=C(C=CCC2)C(=O)N1Cc1ccccc1Cl` (configuration not stated) came in with an inhibition of 37.6%.

As for `CCCCC1(O)C2=C(C=CCC2)C(=O)N1Cc1ccc(N(C)C)cc1` (configuration not stated), the inhibition was found to be 35.3%.

`CCCCC1(O)C2=C(C=CCC2)C(=O)N1Cc1ccccc1C(F)(F)F` (configuration not stated) had an inhibition of 45.1%.

Take `C#CCN1C(=O)C2=C(CCC=C2)C1(O)CCCC` (configuration not stated): the inhibition was 21.5%.

In turn, `CCCCC1(O)C2=C(C=CCC2)C(=O)N1CCc1c[nH]c2ccc(O)cc12` (configuration not stated) yielded an inhibition of 37.7%.

With `CCCCC1(O)C2=C(C=CCC2)C(=O)N1c1ccccc1` (configuration not stated), the inhibition was 15.1%.

Take `CCCCN1C(=O)C2=C(CCC=C2)C1(O)CCCC` (configuration not stated): the inhibition was found to be 21.6%.

For the compound `CCCCC1(O)C2=C(C=CCC2)C(=O)N1Cc1ccc(C)cc1` (configuration not stated), the inhibition is 41.5%.

With `CCCCCN1C(=O)C2=C(CCC=C2)C1(O)CCCC` (configuration not stated), the inhibition turned out to be 21.2%.

For `CCCCC1(O)C2=C(C=CCC2)C(=O)N1Cc1cccs1` (configuration not stated), the inhibition stood at 29.7%.

`CCCCC1(O)C2=C(C=CCC2)C(=O)N1Cc1ccc(C(C)C)cc1` (configuration not stated) yielded an inhibition of 40.7%.

As for `CCCCC1(O)C2=C(C=CCC2)C(=O)N1Cc1ccccc1F` (configuration not stated), the inhibition worked out at 40.4%.

On to `CCCCC1(O)C2=C(C=CCC2)C(=O)N1Cc1cccc(OC)c1` (configuration not stated), for which the inhibition came to 29.4%.

For `CCCCC1(O)C2=C(C=CCC2)C(=O)N1CCc1c[nH]c2ccc(OC)cc12` (configuration not stated), the inhibition amounted to 30.6%.

Compound `CCCCC1(O)C2=C(C=CCC2)C(=O)N1CCc1ccccc1` (configuration not stated) yielded an inhibition of 11.6%.

In the case of `CCCCC1(O)C2=C(C=CCC2)C(=O)N1c1ncccn1` (configuration not stated), the inhibition turned out to be 35.5%.

Turning to `CCCCC1(O)C2=C(C=CCC2)C(=O)N1Cc1cccc(C(F)(F)F)c1` (configuration not stated), the inhibition worked out at 39.4%.

With `CCCCC1(O)C2=C(C=CCC2)C(=O)N1Cc1cccc(F)c1` (configuration not stated), the inhibition is 41%.

Take `CCCCC1(O)C2=C(C=CCC2)C(=O)N1CC` (configuration not stated): the inhibition stood at 17.4%.

Compound `CCCCC1(O)C2=C(C=CCC2)C(=O)N1Cc1ccc(OC)cc1` (configuration not stated) had an inhibition of 40.7%.

In the case of `CCCCC1(O)C2=C(C=CCC2)C(=O)N1Cc1cccnc1` (configuration not stated), the inhibition is 31.9%.

`CCCCC1(O)C2=C(C=CCC2)C(=O)N1Cc1ccc(OCC)cc1` (configuration not stated) gave an inhibition of 40.5%.

On to `CCCCC1(O)C2=C(C=CCC2)C(=O)N1C1CC1` (configuration not stated), for which the inhibition was 20.4%.

For `CCCCC1(O)C2=C(C=CCC2)C(=O)N1Cc1ccc(Br)cc1` (configuration not stated), the inhibition came out at 45.2%.

`CCCCC1(O)C2=C(C=CCC2)C(=O)N1CCC` (configuration not stated) yielded an inhibition of 21.1%.

`CCCCC1(O)C2=C(C=CCC2)C(=O)N1C1CCCC1` (configuration not stated) yielded an inhibition of 16.7%.

As for `CCCCC1(O)C2=C(C=CCC2)C(=O)N1Cc1ccco1` (configuration not stated), the inhibition stood at 33.9%.

With `CCCCC1(O)C2=C(C=CCC2)C(=O)N1Cc1ccc(-c2ccccc2)cc1` (configuration not stated), the inhibition was found to be 43.8%.

On to `CCCCC1(O)C2=C(C=CCC2)C(=O)N1Cc1ccccc1OC` (configuration not stated), for which the inhibition was 36.3%.

`CCCCC1(O)C2=C(C=CCC2)C(=O)N1Cc1ccc(F)cc1` (configuration not stated) displayed an inhibition of 41.5%.

For `CCCCC1(O)C2=C(C=CCC2)C(=O)N1Cc1ccc(Cl)cc1` (configuration not stated), the inhibition was 47.4%.

Compound `CCCCC1(O)C2=C(C=CCC2)C(=O)N1Cc1cccc(-c2ccccc2)c1` (configuration not stated) registered an inhibition of 32.9%.

`CCCCC1(O)C2=C(C=CCC2)C(=O)N1Cc1ccc(C#N)cc1` (configuration not stated) registered an inhibition of 44.3%.

The term inhibition denotes the relative decrease from the control value, in per cent.
